Experimental data as given in patent US20240327408A1, “COMPOUNDS CONTAINING TETRAHYDRONAPHTHYRIDINONE OR TETRAHYDROPYRIDOPYRIMIDINONE SKELETON, PREPARATION METHOD THEREFOR AND PHARMACEUTICAL USE THEREOF” (CHINA PHARMACEUTICAL UNIVERSITY, priority 2021, published 2024).
Read-outs that look alike come from different tables or passages of the source.

How the values were obtained:
[1] = target: T1, hClpP (Homo sapiens, UniProt Q16740); assay: activating ClpP hydrolysis of FITC-casein (fluorescence kinetic detection); assay type: biochemical; settings: hClpP 1 μM, FITC-Casein 4 μM, 37° C.
T1 construct: made in house
Protocol: The specific procedures were as follows:
Test compounds were each prepared into a 100 mM stock solution in DMSO and stored. and 1 μL of stock solution of each of the compounds was taken and diluted to 10 mM by adding 9 μL of DMSO for later use.
The compounds of formula I of the present invention were each diluted at concentrations of 200 μM, 50 μM, 10 μM, 2 μM, 500 nM, 100 nM, 20 nM, and 2 nM in an assay buffer. 50 μL of each of the compounds at different concentrations was added to each well, with 2 replicate wells.
The protein was diluted to 4 μM in an assay buffer. 25 μL of protein was added to each well, and incubated at 37° C. for 30 min. The final concentration was 1 μM.
25 μL of FITC-Casein was added to each well. The final concentration was 4 μM. The mixture was immediately loaded on the machine for detection.
FITC-Casein and FITC-Casein+ClpP were used as negative controls.
The detection temperature was 37° C. The plate was shaken for 3 s. […] Kinetic parameters were set, and scanning was performed once every 1 min for 15 min.

[2] = system: MV4; 11 cells; assay: inhibiting the growth of MV4; 11 cells; assay type: cell-based

T1 sequence (Q16740 57-277): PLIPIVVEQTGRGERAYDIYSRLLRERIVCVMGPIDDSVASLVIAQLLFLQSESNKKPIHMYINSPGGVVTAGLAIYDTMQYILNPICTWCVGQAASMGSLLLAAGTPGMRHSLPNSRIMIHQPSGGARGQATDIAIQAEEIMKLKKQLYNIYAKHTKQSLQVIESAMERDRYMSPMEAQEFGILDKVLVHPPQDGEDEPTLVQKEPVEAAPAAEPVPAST

Row | Compound | EC50 [1] [nM] | IC50 ([2]; Homo sapiens) [nM] | IC50 [2] [nM]
1 | Cn1cncc1CN1CCc2c(c(=O)n(Cc3ccccc3)c3ncccc23)C1 [Compound I-33, 6-benzyl-3-((1-methyl-1H-imidazol-5-yl)methyl)-2,3,4,6-tetrahydropyrido[3,4-c][1,8]naphthyridine-5-(1H)-one] | 10000 to 100000 | 1000 to 10000 | 
2 | Cc1noc(C)c1CN1CCc2c(c(=O)n(Cc3ccccc3)c3ncccc23)C1 [Compound I-34, 6-benzyl-3-((3,5-dimethylisoxazol-4-yl)methyl)-2,3,4,6-tetrahydropyrido[3,4-c][1,8]naphthyridine-5-(1H)-one] | 10000 to 100000 | 1000 to 10000 | 
3 | Cc1ncc(CN2CCc3c(c(=O)n(Cc4ccccc4)c4ncccc34)C2)s1 [Compound I-35, 6-benzyl-3-((2-methylthiazol-5-yl)methyl)-2,3,4,6-tetrahydropyrido[3,4-c][1,8]naphthyridine-5-(1H)-one] | 10000 to 100000 | 1000 to 10000 | 
4 | O=c1c2c(c3cccnc3n1CC1CC1)CCN(Cc1ccccc1)C2 [Compound I-36, 3-benzyl-6-(cyclopropylmethyl)-2,3,4,6-tetrahydropyrido[3,4-c][1,8]naphthyridine-5-(1H)-one] | 10000 to 100000 | 1000 to 10000 | 
5 | O=c1c2c(c3cccnc3n1CC1CCC1)CCN(Cc1ccccc1)C2 [Compound I-37, 3-benzyl-6-(cyclobutylmethyl)-2,3,4,6-tetrahydropyrido[3,4-c][1,8]naphthyridine-5-(1H)-one] | 10000 to 100000 | 1000 to 10000 | 
6 | O=c1c2c(c3cccnc3n1CC1CCCC1)CCN(Cc1ccccc1)C2 [Compound I-38, 3-benzyl-6-(cyclopentylmethyl)-2,3,4,6-tetrahydropyrido[3,4-c][1,8]naphthyridine-5-(1H)-one] | 10000 to 100000 | 1000 to 10000 | 
7 | O=c1c2c(c3cccnc3n1CC1CCCCC1)CCN(Cc1ccccc1)C2 [Compound I-39, 3-benzyl-6-(cyclohexylmethyl)-2,3,4,6-tetrahydropyrido[3,4-c][1,8]naphthyridine-5-(1H)-one] | 10000 to 100000 | 910 | 
8 | O=c1c2c(c3cccnc3n1Cc1ccccc1Br)CCN(Cc1ccccc1)C2 [Compound I-42, 3-benzyl-6-(2-bromobenzyl)-2,3,4,6-tetrahydropyrido[3,4-c][1,8]naphthyridine-5-(1H)-one] | 1000 to 10000 | < 1000 | 
9 | Cc1ccccc1Cn1c(=O)c2c(c3cccnc31)CCN(Cc1ccccc1)C2 [Compound I-43, 3-benzyl-6-(2-methylbenzyl)-2,3,4,6-tetrahydropyrido[3,4-c][1,8]naphthyridine-5-(1H)-one] | 1000 to 10000 | < 1000 | 
10 | CCc1ccccc1Cn1c(=O)c2c(c3cccnc31)CCN(Cc1ccccc1)C2 [Compound I-44, 3-benzyl-6-(2-ethylbenzyl)-2,3,4,6-tetrahydropyrido[3,4-c][1,8]naphthyridine-5-(1H)-one] | 1000 to 10000 | < 1000 | 
11 | COc1ccccc1Cn1c(=O)c2c(c3cccnc31)CCN(Cc1ccccc1)C2 [Compound I-45, 3-benzyl-6-(2-methoxybenzyl)-2,3,4,6-tetrahydropyrido[3,4-c][1,8]naphthyridine-5-(1H)-one] | 1000 to 10000 | < 1000 | 
12 | Cn1ccc(Cn2c(=O)c3c(c4cccnc42)CCN(Cc2ccccc2)C3)n1 [Compound I-58, 3-benzyl-6-((1-methyl-1H-pyrazol-3-yl)methyl)-2,3,4,6-tetrahydropyrido[3,4-c][1,8]naphthyridine-5-(1H)-one] | 10000 to 100000 | 1000 to 10000 | 
13 | Cn1nccc1Cn1c(=O)c2c(c3cccnc31)CCN(Cc1ccccc1)C2 [Compound I-59, 3-benzyl-6-((1-methyl-1H-pyrazol-5-yl)methyl)-2,3,4,6-tetrahydropyrido[3,4-c][1,8]naphthyridine-5-(1H)-one] | 10000 to 100000 | 1000 to 10000 | 
14 | Cc1cc(Cn2c(=O)c3c(c4cccnc42)CCN(Cc2ccccc2)C3)n(C)n1 [Compound I-60, 3-benzyl-6-((1,3-dimethyl-1H-pyrazol-5-yl)methyl)-2,3,4,6-tetrahydropyrido[3,4-c][1,8]naphthyridine-5-(1H)-one] | 10000 to 100000 | 1000 to 10000 | 
15 | O=c1c2c(c3cccnc3n1Cc1ccccn1)CCN(Cc1ccccc1)C2 [Compound I-61, 3-benzyl-6-(pyridin-2-ylmethyl)-2,3,4,6-tetrahydropyrido[3,4-c][1,8]naphthyridine-5-(1H)-one] | 10000 to 100000 | 1000 to 10000 | 
16 | O=c1c2c(c3cccnc3n1Cc1cccnc1)CCN(Cc1ccccc1)C2 [Compound I-62, 3-benzyl-6-(pyridin-3-ylmethyl)-2,3,4,6-tetrahydropyrido[3,4-c][1,8]naphthyridine-5-(1H)-one] | 10000 to 100000 | 1000 to 10000 | 
17 | O=c1c2c(c3cccnc3n1Cc1ccncc1)CCN(Cc1ccccc1)C2 [Compound I-63, 3-benzyl-6-(pyridin-4-ylmethyl)-2,3,4,6-tetrahydropyrido[3,4-c][1,8]naphthyridine-5-(1H)-one] | 10000 to 100000 | 1000 to 10000 | 
18 | O=c1c2c(c3cccnc3n1Cc1cc(Cl)ccn1)CCN(Cc1ccccc1)C2 [Compound I-64, 3-benzyl-6-((4-chloropyridin-2-yl)methyl)-2,3,4,6-tetrahydropyrido[3,4-c][1,8]naphthyridine-5-(1H)-one] | 10000 to 100000 |  | 1000 to 10000

The next lines start with the values.

Row | EC50 [1] [nM] | IC50 ([2]; Homo sapiens) [nM] | IC50 [2] [nM] | Compound
19 | 1000 to 10000 | < 1000 |  | O=c1c2c(c3cccnc3n1Cc1ccccc1F)CCN(Cc1ccccc1)C2 [Compound I-40, 3-benzyl-6-(2-fluorobenzyl)-2,3,4,6-tetrahydropyrido[3,4-c][1,8]naphthyridine-5-(1H)-one]
20 | 1000 to 10000 | < 1000 |  | O=c1c2c(c3cccnc3n1Cc1ccccc1Cl)CCN(Cc1ccccc1)C2 [Compound I-41, 3-benzyl-6-(2-chlorobenzyl)-2,3,4,6-tetrahydropyrido[3,4-c][1,8]naphthyridine-5-(1H)-one]
21 | < 1000 | < 1000 |  | O=c1c2c(c3cccnc3n1Cc1cccc(F)c1)CCN(Cc1ccccc1)C2 [Compound I-46, 3-benzyl-6-(3-fluorobenzyl)-2,3,4,6-tetrahydropyrido[3,4-c][1,8]naphthyridine-5-(1H)-one]
22 | < 1000 | < 1000 |  | O=c1c2c(c3cccnc3n1Cc1cccc(Cl)c1)CCN(Cc1ccccc1)C2 [Compound I-47, 3-benzyl-6-(3-chlorobenzyl)-2,3,4,6-tetrahydropyrido[3,4-c][1,8]naphthyridine-5-(1H)-one]
23 | < 1000 | < 1000 |  | O=c1c2c(c3cccnc3n1Cc1cccc(Br)c1)CCN(Cc1ccccc1)C2 [Compound I-48, 3-benzyl-6-(3-bromobenzyl)-2,3,4,6-tetrahydropyrido[3,4-c][1,8]naphthyridine-5-(1H)-one]
24 | < 1000 | < 1000 |  | Cc1cccc(Cn2c(=O)c3c(c4cccnc42)CCN(Cc2ccccc2)C3)c1 [Compound I-49, 3-benzyl-6-(3-methylbenzyl)-2,3,4,6-tetrahydropyrido[3,4-c][1,8]naphthyridine-5-(1H)-one]
25 | < 1000 | < 1000 |  | CCc1cccc(Cn2c(=O)c3c(c4cccnc42)CCN(Cc2ccccc2)C3)c1 [Compound I-50, 3-benzyl-6-(3-ethylbenzyl)-2,3,4,6-tetrahydropyrido[3,4-c][1,8]naphthyridine-5-(1H)-one]
26 | < 1000 | < 1000 |  | COc1cccc(Cn2c(=O)c3c(c4cccnc42)CCN(Cc2ccccc2)C3)c1 [Compound I-51, 3-benzyl-6-(3-methoxybenzyl)-2,3,4,6-tetrahydropyrido[3,4-c][1,8]naphthyridine-5-(1H)-one]
27 | < 1000 | < 1000 |  | O=c1c2c(c3cccnc3n1Cc1ccc(F)cc1)CCN(Cc1ccccc1)C2 [Compound I-52, 3-benzyl-6-(4-fluorobenzyl)-2,3,4,6-tetrahydropyrido[3,4-c][1,8]naphthyridine-5-(1H)-one]
28 | < 1000 | < 1000 |  | O=c1c2c(c3cccnc3n1Cc1ccc(Cl)cc1)CCN(Cc1ccccc1)C2 [Compound I-53, 3-benzyl-6-(4-chlorobenzyl)-2,3,4,6-tetrahydropyrido[3,4-c][1,8]naphthyridine-5-(1H)-one]
29 | < 1000 | < 1000 |  | O=c1c2c(c3cccnc3n1Cc1ccc(Br)cc1)CCN(Cc1ccccc1)C2 [Compound I-54, 3-benzyl-6-(4-bromobenzyl)-2,3,4,6-tetrahydropyrido[3,4-c][1,8]naphthyridine-5-(1H)-one]
30 | < 1000 | < 1000 |  | Cc1ccc(Cn2c(=O)c3c(c4cccnc42)CCN(Cc2ccccc2)C3)cc1 [Compound I-55, 3-benzyl-6-(4-methylbenzyl)-2,3,4,6-tetrahydropyrido[3,4-c][1,8]naphthyridine-5-(1H)-one]
31 | < 1000 | < 1000 |  | CCc1ccc(Cn2c(=O)c3c(c4cccnc42)CCN(Cc2ccccc2)C3)cc1 [Compound I-56, 3-benzyl-6-(4-ethylbenzyl)-2,3,4,6-tetrahydropyrido[3,4-c][1,8]naphthyridine-5-(1H)-one]
32 | < 1000 | < 1000 |  | COc1ccc(Cn2c(=O)c3c(c4cccnc42)CCN(Cc2ccccc2)C3)cc1 [Compound I-57, 3-benzyl-6-(4-methoxybenzyl)-2,3,4,6-tetrahydropyrido[3,4-c][1,8]naphthyridine-5-(1H)-one]
